# Results reported in patent US4110327A, “2,3 Diketo-piperazinocarbonylamino alkanoic acids and derivatives” (Toyama Chemical Co., Ltd., priority 1974, dated 1978).
# Legend:
# [1] = system: Escherichia coli NIHJ; assay: MIC against standard strain, plate method; format: cell-based; conditions: unit assumed
# Outline: (§1)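 Plate-method MIC. Medium: heart infusion agar, pH 7.4. Inoculum: 10^4 cells per plate (10^6 cells/ml).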
# [2] = system: Staphylococcus aureus 209p; assay: MIC against standard strain, plate method; format: cell-based; conditions: unit assumed
# Outline: as §1
# [3] = system: Klebsiella pneumoniae; assay: MIC against standard strain, plate method; format: cell-based; conditions: unit assumed
# Outline: as §1
# [4] = system: Proteus vulgaris 3027; assay: MIC against standard strain, plate method; format: cell-based; conditions: Proteus vulgaris 3027, standard strain; unit assumed
# Outline: as §1
# [5] = system: Pseudomonas aeruginosa I.F.O.; assay: MIC against standard strain, plate method; format: cell-based; conditions: unit assumed
# Outline: as §1
# [6] = system: Proteus vulgaris; assay: MIC against clinical isolates; format: cell-based; conditions: clinical isolate, unit assumed
# [7] = system: Proteus mirabilis; assay: MIC against clinical isolates; format: cell-based; conditions: clinical isolate, unit assumed
# [8] = system: Klebsiella pneumoniae; assay: MIC against clinical isolates; format: cell-based; conditions: unit assumed
# [9] = system: Proteus morganii; assay: MIC against clinical isolates; format: cell-based; conditions: clinical isolate, unit assumed
# [10] = system: Salmonella typhi-murium; assay: MIC against clinical isolates; format: cell-based; conditions: unit assumed
# [11] = system: Pseudomonas aeruginosa; assay: MIC against clinical isolates; format: cell-based; conditions: unit assumed
# [12] = system: Escherichia coli; assay: MIC against clinical isolates; format: cell-based; conditions: unit assumed
# [13] = system: Salmonella typhi; assay: MIC against clinical isolates; format: cell-based; conditions: unit assumed
# [14] = system: Staphylococcus aureus; assay: MIC against clinical isolates; format: cell-based; conditions: unit assumed
# [15] = system: Shigella flexneri; assay: MIC against clinical isolates; format: cell-based; conditions: unit assumed
# Description: (§2) The minimum inhibitory concentrations (MIC) was determined by the plate method disclosed in "Chemotherapy" (Japan), Vol. 16, (1968), pages 98 - 99. The culture medium used was a Heart infusion agar (pH 7.4). The number of the cells per plate used in the inoculum as 10^4 (10^6 cells/ml).
# (§3) MIC was determined in the same manner as in the preceding paragraph (1).
# [16] = system: Shigella sonnei; assay: MIC against clinical isolates; format: cell-based; conditions: unit assumed
# Description: as §2, §3
# [17] = system: β-lactamase; assay: Resistant activity against β-lactamase, iodometric assay; format: biochemical, Pseudomonas aeruginosa GN 238; conditions: relative to Potassium Penicillin G = 100
# Description: (3) Resistant activity against β-lactamase, Pseudomonas aergionan GN 238:
# The resistant activity of each compound against β-lactamase was measured in the manner described below.
# β-Lactamase was prepared from Pseudomonas aeruginosa GN 238. This microorganism was cultured in 100 ml of a medium containing 2 g of yeast extract, 10 g of polypeptone, 2 g of glucose, 7 g of disodium hydrogen phosphate, 2 g of potassium dihydrogen phosphate, 1.2 g of ammonium sulfate and 0.4 g of magnesium sulfate, per liter, in a 500-ml Erlenmeyer flask for 6 hrs. at 37° C with shaking. The resulting cells were collected by centrifugation (5,000 r.p.m. × 10 min.), washed three times with 0.1 M phosphate buffer (pH 7.0). Subsequently, the cells were subjected to sonication (20 KHz, 20 min.) and then centrifuged at 15,000 r.p.m. for 60 min. By using the supernatant of enzyme fluid, the resistance of each compound against β-lactamase was determined by the iodometric assay method. Each numeral shown in Table 7 is a relative activity value calculated by assuming as 100 the activity of the control Potassium Penicillin G.
# [18] = system: Proteus rettgeri; assay: MIC against clinical isolates; format: cell-based; conditions: clinical isolate, unit assumed
# [19] = clinical isolate GN (number not given; Table 5-3)
structure (smiles),measurement,setting,value
"CCCCCCCCN1CCN(C(=O)N[C@@H](C(=O)N[C@@H]2C(=O)N3[C@@H]2SC(C)(C)[C@@H]3C(=O)O)c2ccccc2)C(=O)C1=O (single isomer, unassigned) [compound 47]",MIC,[1],< 1.57 µg/mL
same,MIC,[2],< 1.57 µg/mL
same,MIC,[3],< 1.57 µg/mL
same,MIC,[4],< 1.57 µg/mL
same,MIC,[5],6.25 µg/mL
same,MIC,[6],< 0.4 µg/mL
same,MIC,[7],< 0.4 µg/mL
same,MIC,[8]; clinical isolate GN 4081,12.5 µg/mL
same,MIC,[8]; clinical isolate GN 4117,12.5 µg/mL
same,MIC,[9],< 0.4 µg/mL
same,MIC,[10]; clinical isolate SL 858,< 0.4 µg/mL
same,MIC,[10]; clinical isolate SL 2136,50 µg/mL
same,MIC,[11]; clinical isolate GN 82,12.5 µg/mL
same,MIC,[11]; clinical isolate GN 163,12.5 µg/mL
same,MIC,[11]; clinical isolate GN 221,25 µg/mL
same,MIC,[11]; clinical isolate GN 376,50 µg/mL
same,MIC,[11]; clinical isolate GN 383,25 µg/mL
same,MIC,[11]; clinical isolate GN 1035,25 µg/mL
same,MIC,[11]; clinical isolate GN 1091,12.5 µg/mL
same,MIC,[11]; clinical isolate GN 2565,25 µg/mL
same,MIC,[11]; clinical isolate GN 2987,12.5 µg/mL
same,MIC,[11]; [19],25 µg/mL
same,MIC,[11]; clinical isolate S-1,50 µg/mL
same,MIC,[11]; clinical isolate S-2,50 µg/mL
same,MIC,[11]; clinical isolate S-3,50 µg/mL
same,MIC,[11]; clinical isolate S-4,50 µg/mL
same,MIC,[12]; clinical isolate GN 3435,0.79 µg/mL
same,MIC,[12]; clinical isolate GN 3465,6.25 µg/mL
same,MIC,[12]; clinical isolate GN 3611,> 200 µg/mL
same,MIC,[12]; clinical isolate K-3,100 µg/mL
same,MIC,[12]; clinical isolate K-4,0.79 µg/mL
same,MIC,[13]; clinical isolate SL 819,3.13 µg/mL
same,MIC,[13]; clinical isolate SL 2169,1.57 µg/mL
same,MIC,[14]; clinical isolate F-1,6.25 µg/mL
same,MIC,[14]; clinical isolate F-4,12.5 µg/mL
same,MIC,[14]; clinical isolate F-5,> 200 µg/mL
same,MIC,[14]; clinical isolate MS 8619,< 0.4 µg/mL
same,MIC,[14]; clinical isolate MS 8713,6.25 µg/mL
same,MIC,[15]; clinical isolate JS 11215,6.25 µg/mL
same,MIC,[16]; clinical isolate JS 11232,6.25 µg/mL
same,MIC,[16]; clinical isolate JS 11755,0.79 µg/mL
same,Relative activity,[17],1%
same,MIC,[18],0.79 µg/mL
CCN1CCN(C(=O)N[C@@H](C(=O)N[C@@H]2C(=O)N3[C@@H]2SC(C)(C)[C@@H]3C(=O)O)c2ccccc2)C(=O)C1=O [compound 36],MIC,[1],< 1.57 µg/mL
same,MIC,[2],< 1.57 µg/mL
same,MIC,[3],< 1.57 µg/mL
same,MIC,[4],< 1.57 µg/mL
same,MIC,[6],< 0.4 µg/mL
same,MIC,[7],< 0.4 µg/mL
same,MIC,[8]; clinical isolate GN 3850,12.5 µg/mL
same,MIC,[8]; clinical isolate GN 4081,100 µg/mL
same,MIC,[8]; clinical isolate GN 4117,100 µg/mL
same,MIC,[9],< 0.4 µg/mL
same,MIC,[10]; clinical isolate SL 858,6.25 µg/mL
same,MIC,[10]; clinical isolate SL 2136,> 200 µg/mL
same,MIC,[11]; clinical isolate GN 221,3.13 µg/mL
same,MIC,[11]; clinical isolate GN 1035,25 µg/mL
same,MIC,[11]; clinical isolate GN 2565,25 µg/mL
same,MIC,[11]; clinical isolate GN 2987,12.5 µg/mL
same,MIC,[11]; [19],12.5 µg/mL
same,MIC,[11]; clinical isolate S-1,50 µg/mL
same,MIC,[11]; clinical isolate S-2,12.5 µg/mL
same,MIC,[11]; clinical isolate S-3,25 µg/mL
same,MIC,[11]; clinical isolate S-4,50 µg/mL
same,MIC,[12]; clinical isolate GN 3452,3.13 µg/mL
same,MIC,[12]; clinical isolate GN 3465,100 µg/mL
same,MIC,[12]; clinical isolate GN 3481,3.13 µg/mL
same,MIC,[12]; clinical isolate GN 3611,> 200 µg/mL
same,MIC,[12]; clinical isolate K-1,3.13 µg/mL
same,MIC,[12]; clinical isolate K-2,3.13 µg/mL
same,MIC,[12]; clinical isolate K-3,> 200 µg/mL
same,MIC,[13]; clinical isolate SL 819,1.57 µg/mL
same,MIC,[13]; clinical isolate SL 2169,1.57 µg/mL
same,MIC,[14]; clinical isolate F-1,12.5 µg/mL
same,MIC,[14]; clinical isolate F-2,3.13 µg/mL
same,MIC,[14]; clinical isolate F-5,> 200 µg/mL
same,MIC,[14]; clinical isolate MS 8588,3.13 µg/mL
same,MIC,[14]; clinical isolate MS 8596,3.13 µg/mL
same,MIC,[14]; clinical isolate MS 8619,0.79 µg/mL
same,MIC,[14]; clinical isolate MS 8684,3.13 µg/mL
same,MIC,[15]; clinical isolate JS 11215,100 µg/mL
same,MIC,[15]; clinical isolate JS 11839,3.13 µg/mL
same,MIC,[16]; clinical isolate JS 11232,50 µg/mL
same,MIC,[16]; clinical isolate JS 11755,3.13 µg/mL
same,Relative activity,[17],14%
same,MIC,[18],12.5 µg/mL
"CCCCCCN1CCN(C(=O)N[C@@H](C(=O)N[C@@H]2C(=O)N3[C@@H]2SC(C)(C)[C@@H]3C(=O)O)c2ccccc2)C(=O)C1=O (single isomer, unassigned) [compound 46]",MIC,[1],< 0.1 µg/mL
same,MIC,[2],0.2 µg/mL
same,MIC,[3],0.4 µg/mL
same,MIC,[4],0.4 µg/mL
same,MIC,[5],6.25 µg/mL
same,MIC,[6],< 0.4 µg/mL
same,MIC,[7],< 0.4 µg/mL
same,MIC,[8]; clinical isolate GN 917,0.79 µg/mL
same,MIC,[8]; clinical isolate GN 4081,12.5 µg/mL
same,MIC,[8]; clinical isolate GN 4117,12.5 µg/mL
same,MIC,[9],< 0.4 µg/mL
same,MIC,[10]; clinical isolate SL 858,< 0.4 µg/mL
same,MIC,[10]; clinical isolate SL 2136,50 µg/mL
same,MIC,[11]; clinical isolate GN 82,6.25 µg/mL
same,MIC,[11]; clinical isolate GN 163,6.25 µg/mL
same,MIC,[11]; clinical isolate GN 221,12.5 µg/mL
same,MIC,[11]; clinical isolate GN 376,25 µg/mL
same,MIC,[11]; clinical isolate GN 383,25 µg/mL
same,MIC,[11]; clinical isolate GN 1035,50 µg/mL
same,MIC,[11]; clinical isolate GN 1091,12.5 µg/mL
same,MIC,[11]; clinical isolate GN 2565,12.5 µg/mL
same,MIC,[11]; clinical isolate GN 2987,6.25 µg/mL
same,MIC,[11]; [19],12.5 µg/mL
same,MIC,[11]; clinical isolate S-1,50 µg/mL
same,MIC,[11]; clinical isolate S-2,50 µg/mL
same,MIC,[11]; clinical isolate S-3,50 µg/mL
same,MIC,[11]; clinical isolate S-4,50 µg/mL
same,MIC,[12]; clinical isolate GN 3435,< 0.4 µg/mL
same,MIC,[12]; clinical isolate GN 3452,0.79 µg/mL
same,MIC,[12]; clinical isolate GN 3465,6.25 µg/mL
same,MIC,[12]; clinical isolate GN 3481,3.13 µg/mL
same,MIC,[12]; clinical isolate GN 3611,> 200 µg/mL
same,MIC,[12]; clinical isolate K-1,0.79 µg/mL
same,MIC,[12]; clinical isolate K-2,0.79 µg/mL
same,MIC,[12]; clinical isolate K-3,50 µg/mL
same,MIC,[12]; clinical isolate K-4,< 0.4 µg/mL
same,MIC,[13]; clinical isolate SL 819,1.57 µg/mL
same,MIC,[13]; clinical isolate SL 2169,0.79 µg/mL
same,MIC,[14]; clinical isolate F-1,6.25 µg/mL
same,MIC,[14]; clinical isolate F-3,0.79 µg/mL
same,MIC,[14]; clinical isolate F-4,6.25 µg/mL
same,MIC,[14]; clinical isolate F-5,> 200 µg/mL
same,MIC,[14]; clinical isolate MS 8596,3.13 µg/mL
same,MIC,[14]; clinical isolate MS 8619,< 0.4 µg/mL
same,MIC,[14]; clinical isolate MS 8713,6.25 µg/mL
same,MIC,[15]; clinical isolate JS 11215,6.25 µg/mL
same,MIC,[15]; clinical isolate JS 11839,0.79 µg/mL
same,MIC,[16]; clinical isolate JS 11232,12.5 µg/mL
same,MIC,[16]; clinical isolate JS 11755,0.79 µg/mL
same,Relative activity,[17],12%
same,MIC,[18],3.13 µg/mL
